Measured values: the supplement of paper PMC10307832

Experiments:
Assay in all cases: relative viability (nuclei count vs DMSO), 5 days (fraction); higher = more cells survive
Quizartinib + OSI-027 = compound: CC(C)(C)c1cc(NC(=O)Nc2ccc(-c3cn4c(n3)sc3cc(OCCN5CCOCC5)ccc34)cc2)no1 [Quizartinib] + COc1cccc2cc(-c3nc([C@H]4CC[C@H](C(=O)O)CC4)n4ncnc(N)c34)[nH]c12 [OSI-027] (partner 0.5 µM)
Summary of the method: (§1)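 Relative viability divides the nuclei count in treated wells by that in vehicle wells. Lung cancer cell lines were seeded in 1536-well plates, dosed by pin tool the next day, and fixed and stained after 5 days in one step with final 0.05% Triton X-100, 1% formaldehyde and 1 ug/ml Hoechst. Dosing was a single drug or a fixed anchor-drug dose plus five library-drug doses (not always all listed) in √10 steps, and values are medians of duplicate plates imaged at 4×.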

Quizartinib + AZD7762 = compound: CC(C)(C)c1cc(NC(=O)Nc2ccc(-c3cn4c(n3)sc3cc(OCCN5CCOCC5)ccc34)cc2)no1 [Quizartinib] + NC(=O)Nc1cc(-c2cccc(F)c2)sc1C(=O)N[C@H]1CCCNC1 [AZD7762] (partner 0.2 µM)
Summary of the method: as §1

Quizartinib + Olaparib = compound: CC(C)(C)c1cc(NC(=O)Nc2ccc(-c3cn4c(n3)sc3cc(OCCN5CCOCC5)ccc34)cc2)no1 [Quizartinib] + O=C(c1cc(Cc2n[nH]c(=O)c3ccccc23)ccc1F)N1CCN(C(=O)C2CC2)CC1 [Olaparib] (partner 8 µM)
Summary of the method: as §1

YM155 + Tozasertib = compound: COCC[n+]1c2c(n(Cc3cnccn3)c1C)C(=O)c1ccccc1C2=O [YM155] + Cc1cc(Nc2cc(N3CCN(C)CC3)nc(Sc3ccc(NC(=O)C4CC4)cc3)n2)n[nH]1 [Tozasertib] (partner 0.1 µM)
Summary of the method: as §1

YM155 + AZD7762 = compound: COCC[n+]1c2c(n(Cc3cnccn3)c1C)C(=O)c1ccccc1C2=O [YM155] + NC(=O)Nc1cc(-c2cccc(F)c2)sc1C(=O)N[C@H]1CCCNC1 [AZD7762] (partner 0.2 µM)
Summary of the method: as §1

YM155 + Decitabine = compound: COCC[n+]1c2c(n(Cc3cnccn3)c1C)C(=O)c1ccccc1C2=O [YM155] + Nc1ncn([C@H]2C[C@H](O)[C@@H](CO)O2)c(=O)n1 [Decitabine] (partner 2 µM)
Summary of the method: as §1

Cell Line: NCI-H1648
- relative viability (Quizartinib + OSI-027; first compound 0.01 µM): 0.258
- relative viability (Quizartinib + OSI-027; first compound 0.03162 µM): 0.253
- relative viability (Quizartinib + OSI-027; first compound 0.1 µM): 0.259
- relative viability (Quizartinib + AZD7762; first compound 0.003162 µM): 0.612
- relative viability (Quizartinib + AZD7762; first compound 0.03162 µM): 0.629
- relative viability (Quizartinib + AZD7762; first compound 0.1 µM): 0.821
- relative viability (Quizartinib + Olaparib; first compound 0.003162 µM): 0.985
- relative viability (Quizartinib + Olaparib; first compound 0.03162 µM): 0.604
- relative viability (Quizartinib + Olaparib; first compound 0.1 µM): 0.909
- relative viability (YM155 + Tozasertib; first compound 0.002 µM): 0.386
- relative viability (YM155 + Tozasertib; first compound 0.006325 µM): 0.605
- relative viability (YM155 + Tozasertib; first compound 0.02 µM): 0.586
- relative viability (YM155 + Tozasertib; first compound 0.06325 µM): 0.427
- relative viability (YM155 + AZD7762; first compound 0.006325 µM): 0.689
- relative viability (YM155 + AZD7762; first compound 0.02 µM): 0.557
- relative viability (YM155 + AZD7762; first compound 0.06325 µM): 0.634
- relative viability (YM155 + Decitabine; first compound 0.006325 µM): 0.593
- relative viability (YM155 + Decitabine; first compound 0.02 µM): 0.41
- relative viability (YM155 + Decitabine; first compound 0.06325 µM): 0.599
